Experiments:
Assay in all cases: relative viability (nuclei count vs DMSO), 5 days (fraction); higher = more cells survive
CUDC-101 + Foretinib = compound: C#Cc1cccc(Nc2ncnc3cc(OC)c(OCCCCCCC(=O)NO)cc23)c1 [CUDC-101] + COc1cc2c(Oc3ccc(NC(=O)C4(C(=O)Nc5ccc(F)cc5)CC4)cc3F)ccnc2cc1OCCCN1CCOCC1 [Foretinib] (partner 0.25 µM)
Summary of the method: (§1)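 For relative viability, nuclei counts in treated wells were divided by those in vehicle wells. Lung cancer cell lines had been pin-tool dosed in 1536-well plates the day after seeding and cultured for 5 days, then fixed and stained in one step (final 0.05% Triton X-100, 1% formaldehyde, 1 ug/ml Hoechst) and imaged at 4×. Doses were one drug alone or a fixed anchor-drug dose plus five library-drug doses (not always all listed) in √10 steps, and values are duplicate-plate medians.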

CUDC-101 + Phenformin = compound: C#Cc1cccc(Nc2ncnc3cc(OC)c(OCCCCCCC(=O)NO)cc23)c1 [CUDC-101] + N=C(N)NC(=N)NCCc1ccccc1 [Phenformin] (partner 250 µM)
Summary of the method: as §1

NVP-TAE684 + Foretinib = compound: COc1cc(N2CCC(N3CCN(C)CC3)CC2)ccc1Nc1ncc(Cl)c(Nc2ccccc2S(=O)(=O)C(C)C)n1 [NVP-TAE684] + COc1cc2c(Oc3ccc(NC(=O)C4(C(=O)Nc5ccc(F)cc5)CC4)cc3F)ccnc2cc1OCCCN1CCOCC1 [Foretinib] (partner 0.25 µM)
Summary of the method: as §1

NVP-TAE684 + Pictilisib = compound: COc1cc(N2CCC(N3CCN(C)CC3)CC2)ccc1Nc1ncc(Cl)c(Nc2ccccc2S(=O)(=O)C(C)C)n1 [NVP-TAE684] + CS(=O)(=O)N1CCN(Cc2cc3nc(-c4cccc5[nH]ncc45)nc(N4CCOCC4)c3s2)CC1 [Pictilisib] (partner 1 µM)
Summary of the method: as §1

Vandetanib + Palbociclib = compound: COc1cc2/c(=N/c3ccc(Br)cc3F)nc[nH]c2cc1OCC1CCN(C)CC1 [Vandetanib] + CC(=O)c1c(C)c2cnc(Nc3ccc(N4CCNCC4)cn3)nc2n(C2CCCC2)c1=O [Palbociclib] (partner 0.5 µM)
Summary of the method: as §1

UMC-11
relative viability (CUDC-101 + Foretinib; first compound 0.01 µM): 1.06
relative viability (CUDC-101 + Foretinib; first compound 0.03162 µM): 1.03
relative viability (CUDC-101 + Foretinib; first compound 0.1 µM): 0.945
relative viability (CUDC-101 + Foretinib; first compound 0.3162 µM): 0.317
relative viability (CUDC-101 + Foretinib; first compound 1 µM): 0.106
relative viability (CUDC-101 + Phenformin; first compound 0.01 µM): 0.337
relative viability (CUDC-101 + Phenformin; first compound 0.03162 µM): 0.285
relative viability (CUDC-101 + Phenformin; first compound 0.1 µM): 0.262
relative viability (CUDC-101 + Phenformin; first compound 0.3162 µM): 0.167
relative viability (CUDC-101 + Phenformin; first compound 1 µM): 0.102
relative viability (NVP-TAE684 + Foretinib; first compound 0.2 µM): 1.03
relative viability (NVP-TAE684 + Foretinib; first compound 0.6325 µM): 0.926
relative viability (NVP-TAE684 + Foretinib; first compound 2 µM): 0.334
relative viability (NVP-TAE684 + Pictilisib; first compound 0.2 µM): 0.979
relative viability (NVP-TAE684 + Pictilisib; first compound 2 µM): 0.586
relative viability (Vandetanib + Palbociclib; first compound 0.02 µM): 0.345
relative viability (Vandetanib + Palbociclib; first compound 0.06325 µM): 0.336
relative viability (Vandetanib + Palbociclib; first compound 0.2 µM): 0.321
relative viability (Vandetanib + Palbociclib; first compound 0.6325 µM): 0.348
relative viability (Vandetanib + Palbociclib; first compound 2 µM): 0.345
